Experimental data as given in patent US20230391776A1, “AMIDE OXAZOLE COMPOUND” (MEDSHINE DISCOVERY INC., priority 2020, published 2023).

Legend:
human IRAK4 = molecular target: T1, human IRAK4 (Homo sapiens, UniProt Q9NWZ3); experiment: In vitro IRAK4 kinase activity, 33P isotope-labeled kinase assay; type: biochemical
T1 construct: purchased Reaction Biology Corp
T1 sequence (Q9NWZ3 1-460): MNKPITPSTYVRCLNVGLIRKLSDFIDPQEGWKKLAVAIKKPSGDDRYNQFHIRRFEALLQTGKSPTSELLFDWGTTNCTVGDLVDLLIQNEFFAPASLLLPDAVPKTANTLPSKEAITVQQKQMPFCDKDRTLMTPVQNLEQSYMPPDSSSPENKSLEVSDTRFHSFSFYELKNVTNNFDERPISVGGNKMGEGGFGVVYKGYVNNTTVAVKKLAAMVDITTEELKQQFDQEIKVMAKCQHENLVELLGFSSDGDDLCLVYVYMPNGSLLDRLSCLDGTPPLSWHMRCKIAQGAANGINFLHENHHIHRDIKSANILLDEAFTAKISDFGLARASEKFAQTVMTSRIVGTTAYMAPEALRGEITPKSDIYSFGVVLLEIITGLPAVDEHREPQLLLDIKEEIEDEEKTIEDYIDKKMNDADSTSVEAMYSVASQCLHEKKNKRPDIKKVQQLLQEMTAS
Protocol: The IC50 values were determined using ^33P isotope-labeled kinase activity assay (Reaction Biology Corp) to evaluate the inhibitory ability of the tested compounds on human IRAK4.
(§1) Buffer conditions: 20 mM Hepes (pH 7.5), 10 mM MgCl2, 1 mM EGTA, 0.02% Brij35, 0.02 mg/mL BSA, 0.1 mM Na3VO4, 2 mM DTT, 1% DMSO.
Test procedure: At room temperature, the tested compound was dissolved in DMSO and a 10 mM solution was prepared for use. The substrate was dissolved in a newly prepared buffer solution, and the tested IRAK4 kinase was added thereto and mixed evenly. The DMSO solution dissolved with the tested compound was added to the above mixed evenly reaction solution using acoustic technique (Echo 550). After incubation for 15 minutes, ^33P-ATP was added to initiate the reaction. The reaction was carried out at room temperature for 120 minutes, and the reaction mixture was dropped on P81 ion exchange filter paper (Whatman #3698-915). The filter paper was washed repeatedly with 0.75% phosphoric acid solution, and the radioactivity of phosphorylated substrate residues on the filter paper was determined. The kinase activity data were expressed by comparing the kinase activity of the group containing the tested compound with the kinase activity of the blank group (only containing DMSO), and the IC50 value was obtained by curve fitting by Prism4 software (GraphPad), the experimental results were shown in Table 2.

[1] = test system: TNF-α production in THP-1 cells; experiment: TNF-α ELISA in LPS-stimulated THP-1 cells; type: cell-based; conditions: Homo sapiens, TNF-α in supernatant, 150 ng/mL LPS, 18 hours
Protocol: THP-1 human acute single cell leukemia cells were purchased from ATCC (Cat #TIB-202) and cultured at 37° C. in 5% CO2 incubator. The composition of medium was RPMI1640 (Gibco, Cat #22400-105), and the supplementary compositions were 10% FBS (Gibco, Cat #10091148); 1% PenStrep (Gibco, Cat #15140); 0.05 mM β-mercaptoethanol (Sigma, Cat #M6250).
TNF-α Elisa kit was used to detect the content of TNF-α in cell culture supernatant samples. TNF-α was produced by stimulating THP-1 cells with 150 ng/mL LPS (Sigma, Cat #L6529).
THP-1 cells cultured normally at logarithmic growth period were seeded in a 96-well plate (Corning #3599) at a certain concentration (1*10^5/100 μL) and then put into a cell incubator for incubation. After two hours, 16.7 μL of different concentrations of the compound to be tested (8*final concentration) were added and incubated in an incubator. After one hour, 16.7 μL of 1200 ng/mL LPS was added and incubated in an incubator. After 18 hours, the culture supernatant samples were collected by centrifugation, and the content of TNF-α could be detected by TNF-α Elisa kit. Finally, OD signals (OD450-OD570) were read on envision board reader.
The OD450-OD570 signal value was converted into a percentage inhibition rate.
Inhibition rate %=(ZPE−sample)/(ZPE−HPE)*100.
“HPE” referred to the OD450-OD570 signal value of the control well without LPS stimulated cells, and “ZPE” referred to the OD450-OD570 signal value of the control well with LPS stimulated cells. The IC50 value of the compound was calculated by XLFit in the excel add-in.
Y=Bottom+(Top−Bottom)/(1+(IC50/X)^HillSlope). Equation: […]

human BTK = molecular target: T2, human BTK (Homo sapiens, UniProt Q06187); experiment: In vitro BTK kinase activity, 33P isotope-labeled kinase assay; type: biochemical
T2 construct: purchased Reaction Biology Corp
T2 sequence (Q06187 whole entry): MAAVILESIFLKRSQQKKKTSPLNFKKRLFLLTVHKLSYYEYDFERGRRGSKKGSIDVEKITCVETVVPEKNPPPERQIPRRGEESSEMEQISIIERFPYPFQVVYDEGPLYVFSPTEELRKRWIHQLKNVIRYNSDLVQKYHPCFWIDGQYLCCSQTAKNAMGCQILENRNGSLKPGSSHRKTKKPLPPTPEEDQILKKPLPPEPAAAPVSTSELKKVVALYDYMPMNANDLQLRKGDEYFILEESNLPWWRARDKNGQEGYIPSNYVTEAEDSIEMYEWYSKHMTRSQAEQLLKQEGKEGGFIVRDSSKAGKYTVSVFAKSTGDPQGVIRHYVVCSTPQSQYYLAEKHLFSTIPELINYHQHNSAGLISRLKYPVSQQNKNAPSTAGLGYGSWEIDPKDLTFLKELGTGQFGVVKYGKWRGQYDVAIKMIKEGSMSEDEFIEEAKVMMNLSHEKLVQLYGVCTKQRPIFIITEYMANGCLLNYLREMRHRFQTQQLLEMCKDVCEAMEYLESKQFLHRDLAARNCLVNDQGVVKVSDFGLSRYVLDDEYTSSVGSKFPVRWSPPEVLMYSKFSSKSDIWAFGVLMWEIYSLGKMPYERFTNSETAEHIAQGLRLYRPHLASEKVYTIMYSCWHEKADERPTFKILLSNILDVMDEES
Protocol: The IC50 values were determined using ^33P isotope-labeled kinase activity assay (Reaction Biology Corp) to evaluate the inhibitory ability of the tested compounds on human BTK.
as §1
Test procedure: At room temperature, the tested compound was dissolved in DMSO and a 10 mM solution was prepared for use. The substrate was dissolved in a newly prepared buffer solution, and the BTK kinase was added thereto and mixed evenly. The compound dissolved in DMSO was added to the kinase reaction mixture through Echo 550 (Acoustic technology; Nanoliter range). After incubation for 20 minutes at room temperature, ^33P-ATP was added to initiate the reaction. The reaction was carried out at room temperature for 2 hours, and the radioactivity of the reaction solution drop was detected by filtration-binding method with P81 ion exchange filter paper. The kinase activity data were expressed by comparing the kinase activity of the group containing the tested compound with the kinase activity of the blank group (only containing DMSO), and the IC50 value was obtained by curve fitting by Prism4 software (GraphPad), the experimental results were shown in Table 3.

[2] = test system: TMD-8 human diffuse large B lymphoma cells; experiment: TMD-8 cell proliferation (Cell Titer Glo); type: cell-based; conditions: TMD8, 72 hours
Protocol: (§2) The tumor cell lines OCI-LY10 and TMD-8 were used to detect the effect of the compound of the disclosure on inhibiting tumor cell proliferation in vitro.
TMD-8 human diffuse large B lymphoma cells, from Nanjing Cobioer Biotechnology Co., Ltd
(§3) The compound was diluted with DMSO to a final concentration of 10 mM. The compound was freshly prepared and ready for use.
(§4) a) Logarithmic growth period cells were collected, counted, resuspended with complete culture medium, the cell concentration was adjusted to an appropriate concentration (determined according to the results of cell density optimization test), inoculated on 96-well plates, and 100 μL of cell suspension was added to each well. Cells were incubated in an incubator with 37° C., 100% relative humidity and 5% CO2 for 24 hours.
(§5) b) The compound to be tested was diluted to 50 μM with culture medium and then gradient diluted for 8 times. Cells were added with 25 μL/well. The final concentrations of the compound were from […], 3-fold gradient dilution, with a total of 9 concentration points.
(§6) c) Cells were incubated in an incubator with 37° C., 100% relative humidity and 5% CO2 for 72 hours;
(§7) d) 60 μL of CTG test reagent was added to the culture medium.
(§8) e) Shaked fully and reacted in the dark for 10 min. Luminescence was measured on ENVISION and the inhibition rate was calculated.
(§9) Cell growth inhibition rate %=[(RLUv−RLUs)/(RLUv−RLUb)]×100%

[3] = test system: OCI-LY10 human diffuse large B lymphoma cells; experiment: OCI-LY10 cell proliferation (Cell Titer Glo); type: cell-based; conditions: 72 hours
Protocol: as §2
OCI-LY10 human diffuse large B lymphoma cells, from Nanjing Cobioer Biotechnology Co., Ltd
as §3, §4, §5, §6, §7, §8, §9

OCI-LY3 cell line = experiment: OCI-LY3 cell proliferation (CTG); type: cell-based; conditions: Homo sapiens, 72 hours
Protocol: The tumor cell line OCI-LY3 was used to detect the effect of the compound of the disclosure on inhibiting tumor cell proliferation in vitro.
The tumor cell line used in this experiment was provided by Nanjing Cobioer Biotechnology Co., Ltd. See Table 6 below for specific information.
The OCI-LY3 cell line was cultured in the corresponding medium at 37° C. and 5% CO2, and the logarithmic growth period cells were used for experimental planking. The cells were collected and centrifuged at 800 rpm for 5 minutes, and the culture medium was re-suspended and spread in a 96-well plate. After being cultured overnight in 37° C., 5% CO2 incubator, drugs with different concentration gradients (10 μL of prepared diluent of test compound was added) were added, and incubated in 37° C., 5% CO2 incubator for 72 hours. The cell culture plate was incubated with CTG reagent at room temperature in the dark for 30 minutes and return to room temperature. CTG solution was added into the biosafety cabinet in the dark 100 μL/well, and was shaken and mixed evenly on plate shaker in the dark for 2 minutes, and incubated at room temperature in the dark for 10 minutes. The luminous value was read and recorded with Perkin Elmer Envision instrument.
The luminous value of the blank control group was subtracted from the luminous value measured at each drug concentration, the ratio of this value to DMSO group was taken as the cell inhibition rate (%). GraphPad software was used, the logarithm of drug concentration (log drug concentration) versus inhibition rate was plotted, and the IC50 value and 95% confidence value were automatically fitted and calculated by log (inhibitor) vs. response-variable slop (four parameters) algorithm of nonlinear regression by software.

Compound	IC50 (human IRAK4) [nM]	IC50 [1] [nM]	IC50 (human BTK) [nM]	IC50 [2] [nM]	IC50 [3] [nM]	IC50 (OCI-LY3 cell line) [nM]
CC(C)(O)CCc1cn2cc(NC(=O)c3coc(-c4ccnc5[nH]ccc45)n3)c(N3CCCCC3)cc2n1 [WX005]	1.5	171	0.6	325		
CN(C)c1cc(-c2nc(C(=O)Nc3cn4cc(CCC(C)(C)O)nc4cc3N3CCCCC3)co2)ccn1 [WX004]	12					
CC(=O)Nc1cc(-c2nc(C(=O)Nc3cn4cc(CCC(C)(C)O)nc4cc3N3CCCCC3)co2)ccn1 [WX002]	6.6	116			125	
CN(C)CCc1cn2cc(NC(=O)c3coc(-c4ccnc(N)c4)n3)c(N3CCCCC3)cc2n1 [WX014]	2.5		0.5	40	18	41
CC(C)(O)CCc1cn2cc(NC(=O)c3coc(-c4ccnc(N)c4)n3)c(N3CCCCC3)cc2n1 [WX001]	1.8	20	7.9	10	29	57
CN(C)CCc1cn2cc(NC(=O)c3coc(-c4ccnc(N)c4)n3)c(-c3ccccc3)cc2n1 [WX016]	2		1.6	6	3	37
Cc1cc(-c2nc(C(=O)Nc3cn4cc(C(C)(C)O)nc4cc3N3CCC(CO)CC3)co2)ccn1 [WX010]	2.1		21.2			
Cc1cc(-c2nc(C(=O)Nc3cn4cc(N=S(C)(C)=O)nc4cc3-c3ccccc3)co2)ccn1 [WX032]	0.9					
COc1cc(-c2nc(C(=O)Nc3cn4cc(CCC(C)(C)O)nc4cc3N3CCCCC3)co2)ccn1 [WX003]	0.6		15.4			
CNc1cc(-c2nc(C(=O)Nc3cn4cc(CCC(C)(C)O)nc4cc3N3CCCCC3)co2)ccn1 [WX006]	1	94	0.7	183	36	
Cc1cc(-c2nc(C(=O)Nc3cn4cc(C(C)(C)O)nc4nc3-c3ccccc3)co2)ccn1 [WX018]	5.1					
Cc1cc(-c2nc(C(=O)Nc3cn4cc(CCC(C)(C)O)nc4cc3N3CCC4(CC3)COC4)co2)ccn1 [WX008]	4.3		71			
CS(=O)(=O)CCc1cn2cc(NC(=O)c3coc(-c4ccnc(N)c4)n3)c(N3CCCCC3)cc2n1 [WX011]	4.7		1.3	28	6	26

The next compounds have a lower IC50 (human IRAK4) than those just listed; values first:

IC50 (human IRAK4) [nM]	IC50 [1] [nM]	IC50 (human BTK) [nM]	IC50 [2] [nM]	IC50 [3] [nM]	IC50 (OCI-LY3 cell line) [nM]	Compound
0.1						Cc1cc(-c2nc(C(=O)Nc3cn4cc(CC(N)=O)nc4cc3-c3ccccc3)co2)ccn1 [WX025]
0.1				48		Cc1cc(-c2nc(C(=O)Nc3cn4cc(S(C)(=O)=O)nc4cc3-c3ccccc3)co2)ccn1 [WX029]
0.4	60	5.6		36		Cc1cc(-c2nc(C(=O)Nc3cn4cc(CCN(C)C)nc4cc3-c3ccccc3)co2)ccn1 [WX015]
0.1		1		14		CNc1cc(-c2nc(C(=O)Nc3cn4cc(C(C)(C)O)nc4cc3-c3ccccc3)co2)ccn1 [WX023]
0.1		45				COc1cc(-c2nc(C(=O)Nc3cn4cc(C(C)(C)O)nc4cc3-c3ccccc3)co2)ccn1 [WX022]
0.4		14.4		20		Cc1cc(-c2nc(C(=O)Nc3cn4cc(CCS(C)(=O)=O)nc4cc3-c3ccccc3)co2)ccn1 [WX012]
0.3						Cc1cc(-c2nc(C(=O)Nc3cn4cc(CC(C)(C)O)nc4cc3-c3ccccc3)co2)ccn1 [WX038]
0.3		19.8				Cc1cc(-c2nc(C(=O)Nc3cn4cc(C(C)(C)O)nc4cc3-c3ccccn3)co2)ccn1 [WX021]
0.4		4.1				Cc1cc(-c2nc(C(=O)Nc3cn4cc(CCC(C)(C)O)nc4cc3N3CCC4(CCOC4)CC3)co2)ccn1 [WX007]
0.4	57.1		16.7	15.2	42	Cc1nccc(-c2nc(C(=O)Nc3cn4cc(C(C)(C)O)nc4cc3-c3ccccc3)co2)c1Cl [WX036]
0.1						Cc1nccc(-c2nc(C(=O)Nc3cn4cc(C(C)(C)O)nc4cc3-c3ccccc3)co2)c1F [WX028]
